Results as given in patent US11168075B2, “Compounds and their use for reducing uric acid levels” (Acquist LLC, priority 2016, dated 2021).
Like-named read-outs stand apart in the source and are kept apart here.

Target: xanthine oxidase (Homo sapiens (Human), UniProt P47989)
Assay: Fluorescence-based xanthine oxidase activity assay
Format: biochemical
Conditions: for inhibition of xanthine oxidase compared to allopurinol: statement in words
[1] = read-out: Xanthine Oxidase IC50

xanthine oxidase, sequence (P47989 whole entry, species assumed): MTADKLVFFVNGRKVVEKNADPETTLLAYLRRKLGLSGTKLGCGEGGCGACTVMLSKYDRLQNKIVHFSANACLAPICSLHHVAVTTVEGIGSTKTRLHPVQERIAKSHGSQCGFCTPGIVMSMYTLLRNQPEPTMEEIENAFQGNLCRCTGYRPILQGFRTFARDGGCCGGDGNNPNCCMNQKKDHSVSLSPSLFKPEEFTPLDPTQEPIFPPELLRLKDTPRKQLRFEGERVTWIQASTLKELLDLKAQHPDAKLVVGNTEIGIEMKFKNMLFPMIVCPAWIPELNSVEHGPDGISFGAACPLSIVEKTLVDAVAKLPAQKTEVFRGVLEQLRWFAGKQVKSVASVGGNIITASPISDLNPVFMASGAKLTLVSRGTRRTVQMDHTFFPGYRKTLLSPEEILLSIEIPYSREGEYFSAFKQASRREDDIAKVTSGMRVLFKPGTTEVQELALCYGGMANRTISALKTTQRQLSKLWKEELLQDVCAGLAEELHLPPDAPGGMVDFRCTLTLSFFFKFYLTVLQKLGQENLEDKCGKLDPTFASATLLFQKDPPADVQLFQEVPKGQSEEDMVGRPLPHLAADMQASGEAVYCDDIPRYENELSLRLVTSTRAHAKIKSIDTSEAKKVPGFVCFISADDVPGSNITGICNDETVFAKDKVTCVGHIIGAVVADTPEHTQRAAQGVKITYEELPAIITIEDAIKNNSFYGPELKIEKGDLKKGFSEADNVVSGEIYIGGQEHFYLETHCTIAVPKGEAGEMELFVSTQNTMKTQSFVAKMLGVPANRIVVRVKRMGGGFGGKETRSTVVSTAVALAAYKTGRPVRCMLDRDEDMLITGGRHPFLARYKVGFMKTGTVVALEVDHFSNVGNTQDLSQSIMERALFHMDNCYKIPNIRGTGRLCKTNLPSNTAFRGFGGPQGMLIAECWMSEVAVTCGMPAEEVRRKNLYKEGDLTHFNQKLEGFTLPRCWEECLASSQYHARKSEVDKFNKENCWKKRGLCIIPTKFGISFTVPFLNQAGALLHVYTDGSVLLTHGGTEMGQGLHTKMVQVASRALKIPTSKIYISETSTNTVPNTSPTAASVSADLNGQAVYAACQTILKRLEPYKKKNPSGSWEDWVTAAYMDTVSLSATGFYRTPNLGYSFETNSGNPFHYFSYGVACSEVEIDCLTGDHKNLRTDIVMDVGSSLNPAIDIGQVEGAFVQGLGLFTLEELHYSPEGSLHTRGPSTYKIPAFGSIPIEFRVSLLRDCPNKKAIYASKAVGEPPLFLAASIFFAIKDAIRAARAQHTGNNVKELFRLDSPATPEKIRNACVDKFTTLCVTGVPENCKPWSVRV

SMILES | inhibition of xanthine oxidase compared to allopurinol | IC50 [µM] | IC50 [1] [µM]
CC(C)Sc1nc(O)c(C(=O)Nc2ccc(-c3c[nH]nn3)cc2)c(=O)[nH]1 [Formula (IId), N-(4-(1H-1,2,3-triazol-5-yl)phenyl)-4-hydroxy-2-(isopropylthio)-6-oxo-1,6-dihydropyrimidine-5-carboxamide] | particularly potent inhibitors | – | –
Cn1c(=O)[nH]c(O)c(C(=N)Nc2ccc(-c3cnn[nH]3)cc2)c1=O [Formula (Ih)] | particularly potent inhibitors | 0.74 | –
O=C(Nc1ccc2[nH]c(=O)[nH]c2c1)c1c(O)[nH]c(=O)[nH]c1=O [Formula (IVa), 6-hydroxy-2,4-dioxo-N-(2-oxo-2,3-dihydro-1H-benzo[d]imidazol-5-yl)-1,2,3,4-tetrahydropyrimidine-5-carboxamide] | – | – | 8.6
N=C(Nc1ccc(-c2cnn[nH]2)cc1)c1c(O)[nH]c(=O)[nH]c1=O [Formula (Ia), N-(4-(1H-1,2,3-triazol-4-yl)phenyl)-6-hydroxy-2,4-dioxo-1,2,3,4-tetrahydropyrimidine-5-carboximidamide] | particularly potent inhibitors | – | 0.25
CS/C(=N\c1ccc(-c2cnn[nH]2)cc1)c1c(O)[nH]c(=O)[nH]c1=O [Formula (Ib), 5-(((4-(1H-1,2,3-triazol-5-yl)phenyl)amino)(methylthio)methylene)pyrimidine-2,4,6(1H,3H,5H)-trione] | – | 54.1 | –
O=C(Nc1nc(O)c2cn[nH]c2n1)c1c(O)[nH]c(=O)[nH]c1=O [Formula (Va), 6-hydroxy-N-(4-hydroxy-1H-pyrazolo[3,4-d]pyrimidin-6-yl)-2,4-dioxo-1,2,3,4-tetrahydropyrimidine-5-carboxamide] | – | – | 36.1
O=C(Nc1c(O)[nH]c(=O)[nH]c1=O)c1ccc(-c2cnn[nH]2)cc1 [Formula (Il), 4-(1H-1,2,3-triazol-4-yl)-N-(2,4,6-trioxohexahydropyrimidin-5-yl)benzamide] | – | 6.3 | –
O=c1[nH]c(O)c(/C(=N\O)Nc2ccc(-c3cnn[nH]3)cc2)c(=O)[nH]1 [Formula (Ic), (E)-N-(4-(1H-1,2,3-triazol-5-yl)phenyl)-N′-hydroxy-2,4,6-trioxohexahydro-pyrimidine-5-carboximidamide] | – | 1.2 | –
Cn1c(O)c(C(=O)Nc2ccc(-c3cnn[nH]3)cc2)c(=O)n(C)c1=O [Formula (Ie), N-(4-(1H-1,2,3-triazol-4-yl)phenyl)-6-hydroxy-1,3-dimethyl-2,4-dioxo-1,2,3,4-tetrahydropyrimidine-5-carboxamide] | particularly potent inhibitors | – | 1.6
O=C(NO)c1cc(NC(=O)c2c(O)[nH]c(=O)[nH]c2=O)ccn1 [Formula (VIIIb), 6-hydroxy-N-(2-(hydroxycarbamoyl)pyridin-4-yl)-2,4-dioxo-1,2,3,4-tetrahydropyrimidine-5-carboxamide] | – | – | 73.8
Cn1c(=O)[nH]c(O)c(C(=O)Nc2ccc(-c3cnn[nH]3)cc2)c1=O [Formula (Ig), N-(4-(1H-1,2,3-triazol-4-yl)phenyl)-2,4-dihydroxy-1-methyl-6-oxo-1,6-dihydropyrimidine-5-carboxamide] | particularly potent inhibitors | – | 0.55
O=C(NC1CCC(c2c[nH]nn2)CC1)c1c(O)[nH]c(=O)[nH]c1=O (stereo not shown) [Formula (Ii)] | – | – | > 296
COc1nc(O)c(C(=O)Nc2ccc(-c3cnn[nH]3)cc2)c(=O)[nH]1 [Formula (IIb), N-(4-(3H-1,2,3-triazol-4-yl)phenyl)-4-hydroxy-2-methoxy-6-oxo-1,6-dihydropyrimidine-5-carboxamide] | particularly potent inhibitors | – | 0.56
O=C(NC1CCC(O)(c2c[nH]nn2)CC1)c1c(O)[nH]c(=O)[nH]c1=O (stereo not shown) [Formula (Ij), 6-hydroxy-N-(4-hydroxy-4-(1H-1,2,3-triazol-4-yl)cyclohexyl)-2,4-dioxo-1,2,3,4-tetrahydropyrimidine-5-carboxamide] | – | – | 13.1
O=C1NS(=O)(=O)c2cc(NC(=O)c3c(O)[nH]c(=O)[nH]c3=O)ccc21 [Formula (IIIa), N-(1,1-dioxido-3-oxo-2,3-dihydrobenzo[d]isothiazol-6-yl)-2,4,6-trihydroxypyrimidine-5-carboxamide] | – | – | 4.5
O=C(Nc1ccc2c(c1)C1(OCCO1)C(=O)N2)c1c(O)[nH]c(=O)[nH]c1=O [Formula (IVc), 6-Hydroxy-2,4-dioxo-N-(2′-oxospiro[[1,3]dioxolane-2,3′-indolin]-5′-yl)-1,2,3,4-tetrahydropyrimidine-5-carboxamide] | – | > 300 | –
O=C1Nc2ccc(NC(=O)c3c(O)[nH]c(=O)[nH]c3=O)cc2C1=O [Formula (IVb), N-(2,3-dioxoindolin-5-yl)-6-hydroxy-2,4-dioxo-1,2,3,4-tetrahydropyrimidine-5-carboxamide] | – | – | > 300
O=C(Nc1ccc(-c2[nH]nnc2-c2ccccc2)cc1)c1c(O)[nH]c(=S)[nH]c1=O [Formula (Im), 6-hydroxy-4-oxo-N-(4-(4-phenyl-1H-1,2,3-triazol-5-yl)phenyl)-2-thioxo-1,2,3,4-tetrahydropyrimidine-5-carboxamide] | – | – | 18.2
Nc1[nH]c(=O)[nH]c(=O)c1C(=O)Nc1ccc(-c2c[nH]nn2)cc1 [Formula (Ik), N-(4-(1H-1,2,3-triazol-5-yl)phenyl)-6-amino-2,4-dioxo-1,2,3,4-tetrahydropyrimidine-5-carboxamide] | particularly potent inhibitors | – | 1.3
O=c1nc2[nH]n(-c3ccc(-c4cnn[nH]4)cc3)c(=O)c2c(O)[nH]1 [Formula (VIIa), 2-(4-(1H-1,2,3-triazol-5-yl)phenyl)-4,6-dihydroxy-1H-pyrazolo[3,4-d]pyrimidin-3(2H)-one] | – | – | 7
Cn1c(O)c(C(=N)Nc2ccc(-c3cnn[nH]3)cc2)c(=O)n(C)c1=O [Formula (If), N-(4-(1H-1,2,3-triazol-5-yl)phenyl)-6-hydroxy-1,3-dimethyl-2,4-dioxo-1,2,3,4-tetrahydropyrimidine-5-carboximidamide] | particularly potent inhibitors | – | 0.2
N/N=C(/Nc1ccc(-c2cnn[nH]2)cc1)c1c(O)[nH]c(=O)[nH]c1=O [Formula (Id), (E)-N-(4-(1H-1,2,3-triazol-5-yl)phenyl)-2,4,6-trioxohexahydropyrimidine-5-carbohydrazonamide] | – | > 300 | –
Cn1c(=O)c2c(Nc3ccc(-c4cnn[nH]4)cc3)n[nH]c2n(C)c1=O [Formula (VIc), 3-((4-(1H-1,2,3-triazol-5-yl)phenyl)amino)-5,7-dimethyl-1H-pyrazolo[3,4-d]pyrimidine-4,6(5H,7H)-dione] | – | – | 2.5
O=c1[nH]c(=O)c2c(Nc3ccc(-c4cnn[nH]4)cc3)n[nH]c2[nH]1 [Formula (VIb), 3-((4-(1H-1,2,3-triazol-5-yl)phenyl)amino)-1H-pyrazolo[3,4-d]pyrimidine-4,6(5H,7H)-dione] | particularly potent inhibitors | – | 0.14
O=C(NO)c1ccc(NC(=O)c2c(O)[nH]c(=O)[nH]c2=O)cc1 [Formula (VIIIa), 6-hydroxy-N-(4-(hydroxycarbamoyl)phenyl)-2,4-dioxo-1,2,3,4-tetrahydropyrimidine-5-carboxamide] | – | – | 17.4
O=C(Nc1ccc(-c2noc(C(F)(F)F)n2)cc1)c1c(O)[nH]c(=O)[nH]c1=O [Formula (In), 6-hydroxy-2,4-dioxo-N-(4-(5-(trifluoromethyl)-1,2,4-oxadiazol-3-yl)phenyl)-1,2,3,4-tetrahydropyrimidine-5-carboxamide] | – | 292 | –
